Measurements reported in US10617705B1, “Isoquercitrin compositions” (priority 2019, dated 2020).

Assay: Stability of isoquercitrin (or catechin) in solution with L-arginine and sodium ascorbate at 50° C., by HPLC
Format: physicochemical
Details: aqueous solution with L-arginine and sodium ascorbate; for amount of intact compound remaining, of the initial amount in the solution: HPLC
Method: An exemplary isoquercitrin/L-arginine mixture was prepared by mixing 0.01 mol isoquercitrin with an aqueous solution containing 0.02 mol L-arginine, heating the mixture to 80° C. until the isoquercitrin dissolved completely, and adding 0.001 mol sodium ascorbate. After cooling, the stability of isoquercitrin was tested by heating the mixture to 50° C. and quantifying by HPLC the amount of intact isoquercitrin remaining after 0 h, 5 h, and 24 h.

amount of intact compound remaining, of the initial amount in the solution (5 h at 50° C.): 100%
amount of intact compound remaining, of the initial amount in the solution (24 h at 50° C.): 98.1%
compound degraded (after 24 h at 50° C.): 1.9%
Compound: O=c1c(O[C@@H]2O[C@H](CO)[C@@H](O)[C@H](O)[C@H]2O)c(-c2ccc(O)c(O)c2)oc2cc(O)cc(O)c12 [isoquercitrin]
